Test results reported in US20170088545A1, “CARBOXAMIDE INHIBITORS” (Norvartis AG, priority 2014, published 2017).

How the values were obtained:
[1] = biological target: Smurf-2 (Homo sapiens, UniProt Q9HAU4); experiment: HECT E3 ligase autoubiquitinylation TR-FRET assay, Smurf-2; type: biochemical; details: 45 min incubation, 8-point dose-response
Text: (§1) To determine the HECT E3 ligase selectivity of the compounds, a panel of biochemical HECT E3 ligase autoubiquitinylation assays was employed (Smurf-1, Smurf-2, WWP1, WWP2, ITCH, Nedd4, Nedd4L and E6AP). The conjugation of ubiquitin to a protein substrate is a multistep process. In an initial ATP-requiring step, a thioester bond is formed between the carboxyl terminus of ubiquitin and an internal cystein residue of the ubiquitin-activating enzyme (E1). Activated ubiquitin is then transferred to a specific cystein residue of an ubiquitin-conjugating enzyme (E2). E2s donate ubiquitin to a HECT E3 ligase (E3) from which it is transferred to the substrate protein. HECT E3 ligases can auto-ubiquitinylate. This event is detected in the TR-FRET (Time-Resolved Fluorescence Resonance Energy Transfer) assay used in this panel. The reaction mix contains E1, E2, tagged-E3, biotin-conjugated ubiquitin, the compound and ATP in a suitable buffer and is incubated for 45 minutes to allow auto-ubiquitinylation of the E3 ligase. To measure the extent of ubiquitinylated E3 ligase by TR-FRET, the donor fluorophore Europium cryptate (Eu3+ cryptate), conjugated to streptavidin which subsequently binds to biotinylated ubiquitin, and the modified allophycocyanin XL665 (HTRF® primary acceptor fluorophore) coupled to a tag-specific antibody (HA, His or GST), which recognizes the respective E3 ligase fusion proteins, are added after the reaction is complete. When these two fluorophores are brought together by a biomolecular interaction (in this case ubiquitinylation of the E3 ligase), a portion of the energy captured by the Cryptate during excitation is released through fluorescence emission at 620 nm, while the remaining energy is transferred to XL665. This energy is then released by XL665 as specific fluorescence at 665 nm. Light at 665 nm is emitted only through FRET with Europium.
(§2) Test and reference compounds are prepared at 180× [final] in 90% DMSO, and diluted 1:3 in 90% DMSO.
(§3) For the biochemical assay panel, 50 nl of the test compounds, reference compounds and buffer/DMSO control are transferred to the respective wells of a 384-well white GREINER “SMALL VOLUME” PS plate. The assay panel is run at room temperature on a Biomek FX liquid handling workstation. To the assay plates containing 50 nl compound or control solutions in 90% DMSO, 4.5 ul of E3 ligase solution were added per well, followed by 4.5 ul of the pre-incubated E1/E2/Ub mix or the pre-diluted ubiquitin (LOW control). Plates are shaken vigorously after each addition. In this assay the compound concentrations range from 3 nM to 10 uM in an 8-point dose-response curve.
(§4) After 45 min of incubation the ubiquitinylation reactions were stopped by adding 4.5 ul 2 mM NEM, immediately followed by 4.5 ul of a detection solution including the XL665-labeled antibody and the streptavidin-coupled europium to give a total volume of 18 ul. After an incubation time of 45 min in the dark, the plates are transferred into the Pherastar fluorescence reader to measure the TR-FRET signal.

[2] = biological target: Smurf-1 (Homo sapiens, UniProt Q9HCE7); experiment: HECT E3 ligase autoubiquitinylation TR-FRET assay, Smurf-1; type: biochemical; details: 45 min incubation, 8-point dose-response
Sequence of Smurf-1 (Q9HCE7 whole entry): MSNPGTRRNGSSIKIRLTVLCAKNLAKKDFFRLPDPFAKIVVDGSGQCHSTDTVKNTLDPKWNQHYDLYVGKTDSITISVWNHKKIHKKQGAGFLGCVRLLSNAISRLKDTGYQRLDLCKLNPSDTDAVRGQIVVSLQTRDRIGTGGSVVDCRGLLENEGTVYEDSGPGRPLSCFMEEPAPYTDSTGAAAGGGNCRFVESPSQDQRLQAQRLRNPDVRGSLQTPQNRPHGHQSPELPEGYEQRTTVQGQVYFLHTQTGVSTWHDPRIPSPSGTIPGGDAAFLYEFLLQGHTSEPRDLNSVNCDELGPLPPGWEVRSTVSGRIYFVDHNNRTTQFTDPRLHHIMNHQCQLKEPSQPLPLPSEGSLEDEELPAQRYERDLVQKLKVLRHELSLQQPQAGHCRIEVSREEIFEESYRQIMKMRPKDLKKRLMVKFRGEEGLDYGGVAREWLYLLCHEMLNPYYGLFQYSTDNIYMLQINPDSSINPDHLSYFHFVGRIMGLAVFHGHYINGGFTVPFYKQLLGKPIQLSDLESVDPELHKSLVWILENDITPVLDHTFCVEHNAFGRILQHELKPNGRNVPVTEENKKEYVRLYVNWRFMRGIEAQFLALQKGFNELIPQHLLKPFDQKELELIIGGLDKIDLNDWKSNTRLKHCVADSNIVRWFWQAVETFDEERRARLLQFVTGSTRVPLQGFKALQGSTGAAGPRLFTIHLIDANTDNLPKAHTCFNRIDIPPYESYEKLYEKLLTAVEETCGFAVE
Text: as §1, §2, §3, §4

Sequence of Smurf-2 (Q9HAU4 whole entry, species assumed): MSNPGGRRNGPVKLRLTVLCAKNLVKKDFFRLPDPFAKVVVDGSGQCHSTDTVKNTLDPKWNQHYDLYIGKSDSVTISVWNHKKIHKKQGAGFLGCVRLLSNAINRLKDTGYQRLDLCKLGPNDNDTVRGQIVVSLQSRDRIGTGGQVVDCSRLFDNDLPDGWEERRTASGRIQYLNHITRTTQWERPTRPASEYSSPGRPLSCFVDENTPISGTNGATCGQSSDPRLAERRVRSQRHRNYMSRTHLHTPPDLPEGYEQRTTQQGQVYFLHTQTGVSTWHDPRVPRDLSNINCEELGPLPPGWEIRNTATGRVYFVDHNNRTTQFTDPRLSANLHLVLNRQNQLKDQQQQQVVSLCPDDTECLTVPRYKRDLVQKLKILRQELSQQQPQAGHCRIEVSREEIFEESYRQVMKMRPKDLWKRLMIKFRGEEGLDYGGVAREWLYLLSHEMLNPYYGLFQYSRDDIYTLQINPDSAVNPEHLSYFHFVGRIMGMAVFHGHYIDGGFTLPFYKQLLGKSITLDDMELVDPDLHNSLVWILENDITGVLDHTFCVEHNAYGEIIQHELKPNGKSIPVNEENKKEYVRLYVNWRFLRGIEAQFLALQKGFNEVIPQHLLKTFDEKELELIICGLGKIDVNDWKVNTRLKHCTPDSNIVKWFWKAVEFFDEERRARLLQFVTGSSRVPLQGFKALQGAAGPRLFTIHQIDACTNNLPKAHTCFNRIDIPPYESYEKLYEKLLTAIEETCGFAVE

Row | IC50 [1] [µM] | IC50 [2] [nM] | Structure (SMILES)
1 | > 10 | 810 | COc1ccc(-c2onc(C(=O)Nc3c(C)n(C)n(-c4ccccc4F)c3=O)c2Cl)c(F)c1Cl [Example 021, 4-Chloro-5-(3-chloro-2-fluoro-4-methoxyphenyl)-N-(2-(2-fluorophenyl)-1,5-dimethyl-3-oxo-2,3-dihydro-1H-pyrazol-4-yl)isoxazole-3-carboxamide]
2 | > 20.2 | 98 | Cc1c(C(=O)Nc2c(C)n(C)n(C3CCCCC3)c2=O)noc1-c1ccc(OCC2CC2)cc1Cl [Example 072, 5-(2-Chloro-4-(cyclopropylmethoxy)phenyl)-N-(2-cyclohexyl-1,5-dimethyl-3-oxo-2,3-dihydro-1H-pyrazol-4-yl)-4-methylisoxazole-3-carboxamide]
3 | 7.5 | 8.3 | Cc1c(NC(=O)c2noc(-c3ccc(Cl)cc3Cl)c2C2CC2)c(=O)n(C2CCCCC2)n1C [Example 039, N-(2-Cyclohexyl-1,5-dimethyl-3-oxo-2,3-dihydro-1H-pyrazol-4-yl)-4-cyclopropyl-5-(2,4-dichlorophenyl) isoxazole-3-carboxamide]
4 | > 20.2 | 260 | COc1ccc(-c2onc(C(=O)Nc3c(C)n(C)n(C4CCCCC4)c3=O)c2C2CC2)c(F)c1 [Example 086, N-(2-Cyclohexyl-1,5-dimethyl-3-oxo-2,3-dihydro-1H-pyrazol-4-yl)-4-cyclopropyl-5-(2-fluoro-4-methoxyphenyl) isoxazole-3-carboxamide]
5 | 10.8 | 23.5 | COc1ccc(-c2onc(C(=O)Nc3c(C)n(C)n(-c4ccccc4F)c3=O)c2C)c(Cl)c1 [Example 006, 5-(2-Chloro-4-methoxyphenyl)-N-(2-(2-fluorophenyl)-1,5-dimethyl-3-oxo-2,3-dihydro-1H-pyrazol-4-yl)-4-methylisoxazole-3-carboxamide]
6 | > 20.2 | 109 | Cc1c(C(=O)Nc2c(C)n(C)n(C3CCCCC3)c2=O)noc1-c1cccc(F)c1F [Example 055, N-(2-Cyclohexyl-1,5-dimethyl-3-oxo-2,3-dihydro-1H-pyrazol-4-yl)-5-(2,3-difluorophenyl)-4-methylisoxazole-3-carboxamide]
7 | > 10 | 777 | CSc1ccc(-c2onc(C(=O)Nc3c(C)n(C)n(-c4ccccc4F)c3=O)c2C)cc1 [Example 011, N-(2-(2-Fluorophenyl)-1,5-dimethyl-3-oxo-2,3-dihydro-1H-pyrazol-4-yl)-4-methyl-5-(4-(methylthio)phenyl) isoxazole-3-carboxamide]
8 | > 10 | 4150 | COc1cc(F)c(-c2onc(C(=O)Nc3c(C)n(C)n(-c4ccccc4F)c3=O)c2C)c(F)c1 [Example 046, 5-(2,6-difluoro-4-methoxyphenyl)-N-(2-(2-fluorophenyl)-1,5-dimethyl-3-oxo-2,3-dihydro-1H-pyrazol-4-yl)-4-methylisoxazole-3-carboxamide]
9 | > 20 | 220 | COc1ccc(-c2onc(C(=O)Nc3c(C)n(C)n(-c4ccccc4F)c3=O)c2F)c(Cl)c1 [Example 033, 5-(2-Chloro-4-methoxyphenyl)-4-fluoro-N-(2-(2-fluorophenyl)-1,5-dimethyl-3-oxo-2,3-dihydro-1H-pyrazol-4-yl)isoxazole-3-carboxamide]
10 | > 20.2 | 7150 | COc1ccccc1-c1onc(C(=O)Nc2c(C)n(C)n(-c3ccccc3F)c2=O)c1C [Example 084, N-(2-(2-fluorophenyl)-1,5-dimethyl-3-oxo-2,3-dihydro-1H-pyrazol-4-yl)-5-(2-methoxyphenyl)-4-methylisoxazole-3-carboxamide]
11 | > 10 | 1050 | Cc1c(C(=O)Nc2c(C)n(C)n(-c3ccccc3F)c2=O)noc1-c1ccc(N(C)C)cc1 [Example 012, 5-(4-(Dimethylamino)phenyl)-N-(2-(2-fluorophenyl)-1,5-dimethyl-3-oxo-2,3-dihydro-1H-pyrazol-4-yl)-4-methylisoxazole-3-carboxamide]
12 | 5.4 | 13.3 | Cc1c(NC(=O)c2noc(-c3ccc(C4CC4)cc3Cl)c2Cl)c(=O)n(-c2ccccc2F)n1C [Example 030, 4-Chloro-5-(2-chloro-4-cyclopropylphenyl)-N-(2-(2-fluorophenyl)-1,5-dimethyl-3-oxo-2,3-dihydro-1H-pyrazol-4-yl)isoxazole-3-carboxamide]
13 | 16.8 | 54.3 | Cc1c(NC(=O)c2noc(-c3ccc(OC(F)F)cc3Cl)c2Cl)c(=O)n(-c2ccccc2F)n1C [Example 003, 4-Chloro-5-(2-chloro-4-(difluoromethoxy)phenyl)-N-(2-(2-fluorophenyl)-1,5-dimethyl-3-oxo-2,3-dihydro-1H-pyrazol-4-yl)isoxazole-3-carboxamide]
14 | 2.74 | 22.7 | Cc1c(C(=O)Nc2c(C)n(C)n(C3CCCCC3)c2=O)noc1-c1ccc(OC(F)(F)F)cc1Cl [Example 010, 5-(2-Chloro-4-(trifluoromethoxy)phenyl)-N-(2-cyclohexyl-1,5-dimethyl-3-oxo-2,3-dihydro-1H-pyrazol-4-yl)-4-methylisoxazole-3-carboxamide]
15 | > 10 | 29.5 | Cc1c(C(=O)Nc2c(C)n(C)n(-c3ccccc3F)c2=O)noc1-c1ccc(Cl)cc1Cl [Example 001, 5-(2,4-Dichlorophenyl)-N-(2-(2-fluorophenyl)-1,5-dimethyl-3-oxo-2,3-dihydro-1H-pyrazol-4-yl)-4-methylisoxazole-3-carboxamide]
16 | 3.1 | 3.5 | Cc1c(C(=O)Nc2c(C)n(C)n(C3CCCCC3)c2=O)noc1-c1ccc(C2CC2)cc1Cl [Example 019, 5-(2-Chloro-4-cyclopropylphenyl)-N-(2-cyclohexyl-1,5-dimethyl-3-oxo-2,3-dihydro-1H-pyrazol-4-yl)-4-methylisoxazole-3-carboxamide]
17 | > 20.2 | 2300 | Cc1cc(C)c(-c2onc(C(=O)Nc3c(C)n(C)n(-c4ccccc4F)c3=O)c2C)c(C)c1 [Example 083, N-(2-(2-fluorophenyl)-1,5-dimethyl-3-oxo-2,3-dihydro-1H-pyrazol-4-yl)-5-mesityl-4-methylisoxazole-3-carboxamide]
18 | 5 | 10.8 | Cc1c(C(=O)Nc2c(C)n(C)n(C3CCCCC3)c2=O)noc1-c1ccc2occc2c1 [Example 054, 5-(Benzofuran-5-yl)-N-(2-cyclohexyl-1,5-dimethyl-3-oxo-2,3-dihydro-1H-pyrazol-4-yl)-4-methylisoxazole-3-carboxamide]
19 | > 20.2 | 895 | Cc1c(C(=O)Nc2c(C)n(C)n(C3CCCCC3)c2=O)noc1-c1cccc2c1OCCC2 [Example 075, 5-(Chroman-8-yl)-N-(2-cyclohexyl-1,5-dimethyl-3-oxo-2,3-dihydro-1H-pyrazol-4-yl)-4-methyl isoxazole-3-carboxamide]
20 | > 20.2 | 965 | Cc1c(C(=O)Nc2c(C)n(C)n(-c3ccccc3F)c2=O)noc1-c1ccc2c(c1)CCO2 [Example 062, 5-(2,3-Dihydrobenzofuran-5-yl)-N-(2-(2-fluorophenyl)-1,5-dimethyl-3-oxo-2,3-dihydro-1H-pyrazol-4-yl)-4-methylisoxazole-3-carboxamide]
21 | > 20.1 | 560 | COc1ccccc1-c1onc(C(=O)Nc2c(C)n(C)n(C3CCCCC3)c2=O)c1C [Example 051, N-(2-Cyclohexyl-1,5-dimethyl-3-oxo-2,3-dihydro-1H-pyrazol-4-yl)-5-(2-methoxyphenyl)-4-methylisoxazole-3-carboxamide]
22 | 2.4 | 7.7 | COc1ccc(-c2onc(C(=O)Nc3c(C)n(C)n(C4CCCCC4)c3=O)c2C)cc1C [Example 048, N-(2-Cyclohexyl-1,5-dimethyl-3-oxo-2,3-dihydro-1H-pyrazol-4-yl)-5-(4-methoxy-3-methylphenyl)-4-methylisoxazole-3-carboxamide]
23 | > 20.2 | 41.5 | COCc1ccc(-c2onc(C(=O)Nc3c(C)n(C)n(C4CCCCC4)c3=O)c2C)c(Cl)c1 [Example 47, 5-(2-Chloro-4-(methoxymethyl)phenyl)-N-(2-cyclohexyl-1,5-dimethyl-3-oxo-2,3-dihydro-1H-pyrazol-4-yl)-4-methylisoxazole-3-carboxamide]
